From publication PMC10530836, “Synthesis, Molecular Docking, and Biological Evaluation of Novel Anthranilic Acid Hybrid and Its Diamides as Antispasmodics” (International Journal of Molecular Sciences, 2023) come the findings set out here.

Structures are written as SMILES.

What all share (assay type): cell-based
Assay [1] relates to Candida albicans NBIMCC 74. As to the kind of experiment: Antimicrobial activity, agar well diffusion. The settings on record: Dose 0.6 mg/disk, dwell = 6 mm. In short, it runs like this: (§1)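 Inhibition-zone diameter around 6 mm wells holding 60 μL extract, measured at 24 h and 48 h; ≥18 mm counted as sensitive, 12–18 mm moderately sensitive, up to 12 mm or no zone resistant. Fungal spores were at 10^5 cfu/mL on MEA at 30 °C, bacterial and yeast cells at 10^8 cfu/mL.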
On the technique in general: A growth-free zone around the sample is the usual read-out of agar diffusion tests.

For assay [2], the system named is Fusarium moniliforme ATCC 38932. The assay is described as follows: Antimicrobial activity, agar well diffusion. The settings on record: Dose 0.6 mg/disk, dwell = 6 mm. In short, it runs like this:
as §1

The next assay has as its system Mucor sp. The assay is described as follows: Antimicrobial activity, agar well diffusion. Particulars: Dose 0.6 mg/disk, dwell = 6 mm. In short, it runs like this:
as §1

The subject of assay [3] is Saccharomyces cerevisiae ATCC 9763. As to the kind of experiment: Antimicrobial activity, agar well diffusion. The settings on record: Dose 0.6 mg/disk, dwell = 6 mm. In short, it runs like this:
as §1

Assay [4] relates to Gram-positive bacteria, Gram-negative bacteria, yeasts and fungi. As to the kind of experiment: Antimicrobial activity, whole panel. The settings on record: agar well diffusion. Here is the method: In our experiments, six Gram-positive bacteria, six Gram-negative bacteria, two yeasts, and six fungi were used. The hybrid molecule and its diamides were tested in vitro for their antimicrobial activity against human pathogenic bacteria and economically relevant phytopathogenic fungi. The inhibition zones of bacterial and fungal growth caused by the novel compounds are outlined in Table 3. The obtained results were compared to a known antispasmodic mebeverine and its precursors. […]
The antimicrobial activity of the samples was determined by the agar well diffusion method. […]
The inocula of the tested bacteria/yeasts was prepared by homogenization of a small amount of biomass in 5 mL of sterile 0.5% NaCl. […] The number of viable cells and fungal spores was determined using a bacterial counting chamber Thoma (Poly-Optik, GmbH, Bad Blankenburg, Germany). […] Next, the inoculated media were transferred in a quantity of 18 mL in sterile Petri plates (d = 90 mm) (Gosselin™, Hazebrouck, France) and allowed to harden. […]
The antimicrobial activity was determined by measuring the diameter of the inhibition zones around the wells on the 24th and 48th h of incubation. […]

Take `Nc1ccccc1C(=O)NCCc1cccc(Cl)c1` [Compound 3, 2-amino-N-(3-chlorophenethyl)benzamide]: the “Inhibition Zones” value (in assay [1]; in assay [2]; in the assay with Mucor sp.; in assay [3]) was 15 mm in each case. The “antimicrobial activity (overall, in words)” value in assay [4] is given as “very good antimicrobial activity”.
